Data taken from ChEMBL document CHEMBL2331088, “An α-carbonic anhydrase from the thermophilic bacterium Sulphurihydrogenibium azorense is the fastest enzyme known for the CO2 hydration reaction” (Bioorg Med Chem, 2013).

Assays:
[1] = Inhibition of Sulfurihydrogenibium yellowstonense YO3AOP1 carbonic anhydrase preincubated for 15 mins by CO2 hydration stopped-flow assay
[2] = Inhibition of Sulfurihydrogenibium azorense carbonic anhydrase preincubated for 15 mins by CO2 hydration stopped-flow assay
[3] = Inhibition of Helicobacter pylori alpha-carbonic anhydrase preincubated for 15 mins by CO2 hydration stopped-flow assay

Compound | Ki [1] [µM] | Ki [2] [µM] | Ki [3] [µM]
CC(=O)Nc1nnc(S(N)(=O)=O)s1 [ACETAZOLAMIDE] | 0.004 | 0.0009 | –
O=C(O)O [BICARBONATE] | 33200 | 15700 | –
Br [BROMIDE] | 49000 | 940 | 2410
S=C(S)S [CARBONOTRITHIOIC ACID] | 60 | 39 | 380
CCN(CC)C(=S)S [DITIOCARB] | 4 | 3.1 | 5
F [FLUORIDE ION] | 417000 | 980 | 4080
Cl [HYDROCHLORIC ACID] | 8300 | 850 | 2700
S [HYDROGEN SULFIDE] | 580 | 380 | –
I [IODIDE] | 860 | 870 | 6050
N=C=[Se] [ISOSELENOCYANATE] | 70 | 490 | 730
N=C=S [ISOTHIOCYANATE] | 710 | 580 | 4100
NS(=O)(=O)O [SULFAMATE] | 42 | 4.8 | 80
O=S(=O)(O)O [SULFURIC ACID] | 820 | 10000 | 820
O=S(O)O [SULFUROUS ACID] | 21100 | 950 | 990
